Experimental findings from PMC11245370, “3-Position Biaryl Endochin-like Quinolones with Enhanced Antimalarial Performance” (ACS Infectious Diseases, 2024) are described below.

Bounds are passed on as bounds.

In series [1] the test system is P. falciparum drug-sensitive D6 strain. Briefly: SYBR Green I antiplasmodial assay, D6 strain. In kind it is cell-based. The settings on record: Plasmodium falciparum, D6, 72 h, read-out: P. falciparum IC50 values, D6. The procedure: (§1) All of this information is stored in a database with information relating to chemical structure, physical chemical properties, cross resistance patterns, mammalian cell cytotoxicity, enzyme inhibitor profiles, and synthesis details. Pharmacological data and in vivo efficacy data are also stored in the database for molecules of particular interest. […] We synthesized the compound in an initial batch size of about 800 mg as described above. […] Fluorescence readings were captured with a fluorescence plate reader and processed by nonlinear regression analysis using the GraphPad Prism software to provide IC50 values for each determination. Stock solutions were freshly prepared daily in DMSO in glass vials.
(§2) Laboratory strains of P. falciparum were cultured in human erythrocytes by standard methods. The parasites were grown in culture medium with fresh human erythrocytes maintained at 2% hematocrit at 37 °C in low-oxygen conditions (5% O2, 5% CO2, 90% N2). […] Cultures were maintained at less than 10% parasitemia by transfer of infected cells to fresh erythrocytes and culture medium every 3 or 4 days.
(§3) SYBR green I assay. In vitro antiplasmodial activity was assessed using a published SYBR Green I fluorescence-based method.[20] The drugs were added to 96-well plates using twofold serial dilutions in complete medium. […] Asynchronous P. falciparum parasites were diluted with uninfected erythrocytes and added to the wells to give a final culture volume of 100 μL at 2% hematocrit and 0.2% parasitemia. […] The parasites were then lysed by adding 100 μL of SYBR green I lysis buffer containing 0.2 μL/ml SYBR green I dye (10,000×) in 20 mM Tris (pH 7.5), 5 mM EDTA, 0.008% (wt/vol) saponin, and 0.08% (v/v) Triton X-100. The plates were incubated at room temperature for an hour in the dark. […] If the IC50 value fell outside of the initially tested range, then the range was adjusted up or down, and the assay was repeated twice.

Series [2] can be described thus: HepG2 cytotoxicity / mitochondrial toxicity (TiterGlo ATP, galactose medium). The note with it: human.
Method: HepG2 was routinely cultured in DMEM containing 10% fetal calf serum and 100 IU/mL penicillin and 100 μg/mL streptomycin (complete medium). For studies to investigate the potential for mitochondrial toxicity by selected 3-biaryl-ELQs, the medium contained galactose rather than glucose to force the cells to produce ATP through oxidative phosphorylation, which in turn makes them sensitive to mitochondrial toxicants.[36] […] After this period, the culture medium was removed, and the cells were shifted to galactose-containing medium with test drugs at concentrations ranging from 0 to 10 μM. Drug dilutions were prepared from DMSO stocks into galactose-containing medium. […] After incubation, the contents of each well were removed, and 25 μL of TiterGlo II reagent mix containing luciferase, detergent, and luciferin was added to each well along with 25 μL of culture medium. […] At this point, the plates were read on a luminometer (SpectraMax iD3 iD5Multi-Mode Microplate Reader), and the data were processed to yield the percent decrease in ATP production relative to no-drug control values. These values reflect the potential damage caused by mitochondrial toxicants due to reduced intracellular ATP levels caused by interference with the human mitochondrial electron transport chain. Assays were set up in triplicate.
Series [3] has as its system P. falciparum multidrug-resistant Dd2 strain. Briefly: microbe, parasite or virus in culture. In kind it is cell-based. The note with it: Plasmodium falciparum, DD2, 72 h, read-out: P. falciparum IC50 values, Dd2. The procedure: as §1, §2, §3
For series [4], the system named is P. falciparum atovaquone-resistant clinical isolate Tm90-C2B. The series can be described thus: SYBR Green I antiplasmodial assay, Tm90-C2B. In kind it is cell-based. The settings on record: Plasmodium falciparum, TM90, 72 h, read-out: P. falciparum IC50 values, Tm90-C2B. The procedure: as §1, §2, §3
In series [5] the test system is P. falciparum ELQ-300-resistant D1 clone. The series can be described thus: microbe, parasite or virus in culture. It is filed as cell-based. The settings on record: Plasmodium falciparum, 72 h, read-out: P. falciparum IC50 values, D1.

With `COc1cc2[nH]c(C)c(-c3ccc(-c4ccc(OC(F)(F)F)cc4)cc3)c(=O)c2cc1F` [ELQ-650, 6-Fluoro-7-methoxy-2-methyl-3-(4′-(trifluoromethoxy)-[1,1′-biphenyl]-4-yl)quinolin-4(1H)-one], the 50% inhibitory concentration (IC50) – broadly, the concentration needed to halve the response being measured – in series [1] came out at 0.8 nM; in series [3], 1.1 nM; in series [4] it was 0.4 nM; in series [5], 14 nM. In series [2] (HepG2 cells), this molecule showed an IC50 at 24 h of over 10 µM.
Consider `COc1cc2[nH]c(C)c(-c3ccc(-c4ccc(C(F)F)cc4)cc3)c(=O)c2cc1Cl` [ELQ-659, 6-Chloro-3-(4′-(difluoromethyl)-[1,1′-biphenyl]-4-yl)-7-methoxy-2-methylquinolin-4(1H)-one], for which the IC50 is 1.8 nM in series [1], 1.8 nM in series [3], 0.57 nM in series [4] and over 250 nM in series [5]. Also, in series [2] (HepG2 cells), the IC50 at 24 h was over 10 µM.
In the case of `COc1cc2[nH]c(C)c(-c3ccc(-c4ccc(C)cc4)cc3)c(=O)c2cc1Cl` [ELQ-603, 6-Chloro-7-methoxy-2-methyl-3-(4′-methyl-[1,1′-biphenyl]-4-yl)quinolin-4(1H)-one], the IC50 in series [1] is 1 nM; in series [3], 3.8 nM; in series [4], 1.5 nM; in series [5], over 250 nM.
In series [2], `C=C(C)[C@H]1Cc2c(ccc3c2O[C@@H]2COc4cc(OC)c(OC)cc4[C@@H]2C3=O)O1` [rotenone, reference compound] registered an IC50 at 24 h of under 1 µM.
Consider `Cc1[nH]c2c(c(=O)c1-c1ccc(-c3ccc(OC(F)(F)F)cc3)cc1)CCCC2` [ELQ-660], for which the IC50 in series [1] came out at 14.8 nM; in series [3], 12.8 nM; in series [4] it was 7.9 nM; in series [5], 22.2 nM.
For `COc1ccc(-c2ccc(-c3c(C)[nH]c4cc(OC)c(Cl)cc4c3=O)cc2)cc1` [ELQ-645, 6-Chloro-7-methoxy-3-(4′-methoxy-[1,1′-biphenyl]-4-yl)-2-methylquinolin-4(1H)-one], in that order: 5 nM, 10.2 nM, 6 nM and over 250 nM.
With `COc1cc2[nH]c(C)c(-c3ccc(-c4cccc(OC(F)(F)F)c4)cc3)c(=O)c2cc1Cl` [ELQ-604, 6-Chloro-7-methoxy-2-methyl-3-(3′-(trifluoromethoxy)-[1,1′-biphenyl]-4-yl)quinolin-4(1H)-one], the IC50 in series [1] was 0.6 nM; in series [3], 0.5 nM; in series [4] it was 0.5 nM; in series [5], over 250 nM. The IC50 at 24 h in series [2] (HepG2 cells) is over 10 µM.
On to `COc1cc2[nH]c(C)c(-c3ccc(-c4ccc(Oc5ccc(OC(F)(F)F)cc5)cc4)cc3)c(=O)c2cc1Cl` [ELQ-653, 6-Chloro-7-methoxy-2-methyl-3-(4′-(4-(trifluoromethoxy)phenoxy)-[1,1′-biphenyl]-4-yl)quinolin-4(1H)-one], for which the IC50 in series [1] was 1.5 nM; in series [3], 1.4 nM; in series [4], 0.88 nM; in series [5], over 250 nM.
`Cc1[nH]c2cc(F)cc(F)c2c(=O)c1-c1ccc(-c2ccc(OC(F)(F)F)cc2)cc1` [ELQ-601, 5,7-Difluoro-2-methyl-3-(4′-(trifluoromethoxy)-[1,1′-biphenyl]-4-yl)quinolin-4(1H)-one]: the IC50 in series [1] is 5.9 nM; in series [3] it was 14.3 nM; in series [4] it was 24.5 nM; in series [5] it was 9.3 nM.
Turning to `COc1cc2[nH]c(C)c(-c3ccc(-c4cccc(C(F)(F)F)c4)cc3)c(=O)c2cc1Cl` [ELQ-646, 6-Chloro-7-methoxy-2-methyl-3-(3′-(trifluoromethyl)-[1,1′-biphenyl]-4-yl)quinolin-4(1H)-one], the IC50 in series [1] is 1.1 nM; in series [3], 2.7 nM; in series [4], 1 nM; in series [5], over 250 nM. Besides, the IC50 at 24 h in series [2] (HepG2 cells) is over 10 µM.
As to `COc1cc2[nH]c(C)c(-c3ccc(-c4cccc(S(F)(F)(F)(F)F)c4)cc3)c(=O)c2cc1Cl` [ELQ-662, 6-Chloro-7-methoxy-2-methyl-3-(3′-(pentafluorosulfanyl)-[1,1′-biphenyl]-4-yl)quinolin-4(1H)-one], the IC50 in series [1] is 0.7 nM; in series [3], 1.3 nM; in series [4] it was 1.4 nM; in series [5], over 250 nM.
On to `COc1cc2[nH]c(C)c(-c3ccc(-c4ccc(C(F)(F)F)cc4)cc3)c(=O)c2cc1Cl` [ELQ-647, 6-Chloro-7-methoxy-2-methyl-3-(4′-(trifluoromethyl)-[1,1′-biphenyl]-4-yl)quinolin-4(1H)-one], for which the IC50 in series [1] is 3.5 nM; in series [3], 7.8 nM; in series [4], 3.5 nM; in series [5], over 250 nM. Also, the IC50 at 24 h in series [2] (HepG2 cells) was over 10 µM.
On to `Cc1[nH]c2ccccc2c(=O)c1-c1ccc(-c2ccc(OC(F)(F)F)cc2)cc1` [ELQ-649, 2-Methyl-3-(4′-(trifluoromethoxy)-[1,1′-biphenyl]-4-yl)quinolin-4(1H)-one], for which the IC50 in series [1] was found to be 7.9 nM; in series [3], 8.3 nM; in series [4], 6 nM; in series [5], 15.8 nM.
The matching figures for `COc1cc2[nH]c(C)c(-c3ccc(-c4ccc(C#N)cc4)cc3)c(=O)c2cc1Cl` [ELQ-602, 4′-(6-Chloro-7-methoxy-2-methyl-4-oxo-1,4-dihydroquinolin-3-yl)-[1,1′-biphenyl]-4-carbonitrile]: 4.8 nM, 25.2 nM, 10.9 nM and over 250 nM.
For the molecule `Cc1[nH]c2cc(F)cc(F)c2c(=O)c1-c1ccc(Oc2ccc(OC(F)(F)F)cc2)cc1` [ELQ-400, reference compound], the IC50 in series [1] turned out to be 0.19 nM; in series [3], 0.44 nM; in series [4], 19.3 nM; in series [5] it was 0.73 nM. In addition, the IC50 at 24 h in series [2] was determined as 10 µM.
On to `COc1cc2[nH]c(C)c(-c3ccc(-c4ccc(S(F)(F)(F)(F)F)cc4)cc3)c(=O)c2cc1Cl` [ELQ-663, 6-Chloro-7-methoxy-2-methyl-3-(4′-(pentafluorosulfanyl)-[1,1′-biphenyl]-4-yl)quinolin-4(1H)-one], for which the IC50 in series [1] is 1.6 nM; in series [3] it was 3.2 nM; in series [4] it was 3.8 nM; in series [5] it was over 250 nM.
As for `COc1cc2[nH]c(C)c(-c3ccc(-c4ccc(OC(F)F)cc4)cc3)c(=O)c2cc1Cl` [ELQ-600, 6-Chloro-3-(4′-(difluoromethoxy)-[1,1′-biphenyl]-4-yl)-7-methoxy-2-methylquinolin-4(1H)-one], the IC50 in series [1] was 3.9 nM; in series [3] it was 13.4 nM; in series [4] it was 5.9 nM; in series [5], over 250 nM. This molecule also displayed an IC50 at 24 h in series [2] (HepG2 cells) of over 10 µM.
For the molecule `COc1cc2[nH]c(C)c(-c3ccc(-c4ccc(C(C)(C)C)cc4)cc3)c(=O)c2cc1Cl` [ELQ-651, 3-(4′-(tert-Butyl)-[1,1′-biphenyl]-4-yl)-6-chloro-7-methoxy-2-methylquinolin-4(1H)-one], the IC50 in series [1] is 1.1 nM; in series [3], 1.4 nM; in series [4], 0.49 nM; in series [5], over 250 nM.
Regarding `COc1cc2[nH]c(C)c(-c3ccc(-c4ccc(Cl)cc4)cc3)c(=O)c2cc1Cl` [ELQ-637, 6-Chloro-3-(4′-chloro-[1,1′-biphenyl]-4-yl)-7-methoxy-2-methylquinolin-4(1H)-one], the IC50 in series [1] was 3.4 nM; in series [3], 7.1 nM; in series [4], 3 nM; in series [5] it was over 250 nM. Also, the IC50 at 24 h in series [2] (HepG2 cells) is over 10 µM.
